Tests used:
[1] = biological target: human insulin receptor(B); test: Insulin Receptor Binding Assay (scintillation proximity assay); settings: SPA, 384-well, membranes from CHO cells overexpressing human insulin receptor(B); [125I]-insulin 0.015 nM; room temperature, 1 to 12 hours
Experimental: Both the binding affinity and functional activity of 18 supported the conclusion that the A19-CF3-tyrosine–insulin maintained its structural integrity as compared with unmodified, native insulin. To further support this observation, SOFAST ^13C methyl HMQC NMR spectroscopic analysis was conducted on both 18 and native unmodified insulin.[18] […] This observation validated the notion that CF3-labeling of aromatic sidechains provides a sensitive ^19F-NMR spectroscopic probe of the local environment in complex peptides while being minimally perturbing to the overall structure of the biomacromolecule.
Insulin Receptor Binding Assays were run in a scintillation proximity assay (SPA) 384- we ll
format using cell membranes prepared from CHO cells overexpressing human insulin
receptor(B) grown in F12 media containing 10% FBS and antibiotics (G418,
Penicillin/[…]). Cell membranes were prepared in 50 mM Tris buffer, pH 7.8, containing
5 m M Mg Cl 2. The assay buffer contained 50 mM Tris buffer, pH 7.5, 150 mM NaCl, 1 mM
CaCl2, 5 mM MgCl 2, 0.1% BSA and protease inhibitors (Complete- Mi n i -Roche). Cell
membranes were added to W GA PVT PEI SPA beads (5 mg/mL f inal concentration) f ollowed by
addition of test molecules at appropriate concentrations. After 5-15 min incubation at room
temperature, [125I]- insulin was added at 0.015 nM f inal concentration f or a f inal total volume of
50 µL. […]

[2] = biological target: human insulin receptor(B); test: Insulin Receptor Phosphorylation Assay (MSD pIR assay); type: cell-based; settings: CHO cells stably expressing human insulin receptor(B), serum starved, 40,000 cells/well, 8 min at 37 °C, read-out: EC50 (functional assay)

## native insulin: recombinant human insulin, 21 amino acid A chain and 30 amino acid B chain linked by three disulfide bonds
[1]
  IC50: 0.8 nM
[2]
  EC50: 0.4 nM

— publication PMC5941281, “Protecting group free radical C–H trifluoromethylation of peptides” (Chemical Science, 2018)
